Experimental data reported in PMC6770581, “New Thalidomide-Resembling Dicarboximides Target ABC50 Protein and Show Antileukemic and Immunomodulatory Activities” (Biomolecules, 2019).

Experiments:
CFPAC cells = experiment: MTT cytotoxicity assay, CFPAC; format: cell-based; conditions: Homo sapiens, 48 h, mean ± SD
Protocol: Human umbilical vein endothelial cells (purchased from Life Technologies, Carlsbad, CA, USA) were cultured according to the manufacturer’s instructions in Medium 200 supplemented with Low Serum Growth Supplement. 1 × 10^4 cells were seeded on each well on a 96-well plate (Nunc, Roskilde, Denmark). The HeLa (human cervix carcinoma, cat. #93021013), CFPAC (human pancreatic adenocarcinoma, cat. #91112501), K562 (chronic myelogenous leukemia, cat. #89121407), HL-60 (acute myelogenous leukemia, cat. #98070106), and MOLT-4 (Human acute T lymphoblastic leukemia, cat. #85011413) cells were purchased from European Collection of Authenticated Cell Cultures (ECACC). They were cultured in an RPMI 1640 medium supplemented with antibiotics (streptomycin, penicillin) and 10% fetal calf serum (20% for HL60), in a 5% CO2-95% air atmosphere. 7 × 10^3 cells were seeded on each well on a 96-well plate (Nunc). 24 hours later the cells were exposed to the test compounds. The aliquots of stock solutions of the test compounds (freshly prepared in DMSO) were added to the cell cultures to yield final concentrations of 1, 10^−1, 10^−2, 10^−3, 10^−4, and 10^−5 mM. The concentration of DMSO in the cell culture medium was 1%. The IC50 value (the concentration of a test compound required to reduce the cell survival fraction to 50% of the control) was calculated from a dose-response curve and used as a measure of cellular sensitivity to a given treatment. The IC50 values are given as means (± standard deviation (SD)) from 2 independent experiments with 4 technical replicates. The cytotoxicity of all compounds was determined by the MTT (3-(4,5-dimethylthiazol-2-yl)-2,5-diphenyltetrazolium bromide) assay (Sigma, St. Louis, MO, USA). Briefly, after 24 h or 48 h of incubation with a given compound, the cells were treated with the MTT reagent and incubation was continued for 2 h. MTT-formazan crystals were dissolved in 20% SDS and 50% DMF at pH 4.7 and VIS light absorption was measured at 570 and 650 nm on a microplate reader FLUOstar Omega (BMG Labtech, Offenburg, Germany). As a control (100% viability), cells grown in the presence of 1% DMSO were used.

caspase 3 and 7 = experiment: Caspase-3/7 activity (Apo-ONE fluorescent assay) in MOLT-4 cells; format: cell-based, human; conditions: 5× IC50, 18 h, normalized to 1% DMSO
Protocol: Louis, MO). The induction of cell apoptosis was analyzed by Apo-ONE® Homogeneous Caspase-3/7 Assay (Promega, Madison, WI, USA). […] The fluorescence in each well was measured in triplicate (excitation at 485 nm, emission measured at 520 nm) using a microplate reader FLUOStar Omega (BMG-Labtech, Offenburg, Germany). For normalization of the data, the caspase activity in the control cells (exposed to 1% DMSO) was taken as 1.0. […] Luminescence was measured (in triplicate) using a microplate reader FLUOStar Omega. For normalization of the data, the caspase activity in the control cells (exposed to 1% DMSO) was taken as 1.0.

K562 cells = experiment: Annexin V/PI or 7-AAD flow cytometry of apoptosis, K562; format: cell-based, human; conditions: K562, 5× IC50 (3 10 µM, 6 5 µM, 5 5 µM), staurosporine 1 µM; different incubation times for 3, 6 and 5
Protocol: The phosphatidylserine on the extracellular side of cell membranes was quantified using an FITC Annexin V Apoptosis Detection Kit I (BD Pharmingen, San Diego, CA, USA) according to the manufacturer’s instruction. 10^6 cells were seeded on a 6-well plate (Nunc). […] The control cells were exposed to 1% DMSO or 1μM staurosporine. After treatment the cells were centrifuged at 700 rpm (120× g) for 5 min, washed twice with cold PBS and then resuspended in 1x binding buffer to a density of 10^6 cells/ml. 100 µL of the resuspended cells was stained in the dark with 5 μl of Annexin V-fluoroscein isothiocyanate (FITC) solution and 10 µL propidium iodide (PI) solution for 15 min at room temperature. The samples were then diluted with 400 μL of a binding buffer and within 1 h analyzed with a flow cytometer (BD FACSCalibur^TM, BD Biosciences, San Jose, CA, USA). After treatment, four populations of cells were assessed: (1) viable (neither apoptotic nor necrotic, Annexin V-FITC and PI negative), (2) apoptotic (Annexin V-FITC positive and PI negative), (3) late apoptotic (Annexin V-FITC and PI positive), and (4) necrotic (Annexin V-FITC negative and PI positive).
0.15 × 10^6 cells/ml were seeded on a 6-well plate (Nunclon, Thermo Fisher Scientific, Waltham, MA, USA). Following 24 h preincubation the cells were treated with either the compound or 1% DMSO (control) for 24 or 48 h. After indicated time, the cells were washed with cold PBS (w/o Mg^2+, Ca^2+), stained with Annexin V (FITC Annexin V Apoptosis Detection Kit with 7-aminoactinomycin D (7-AAD), Biolegend, San Diego, CA, USA) according to manufacturer instructions and analysed using BD FACSCalibur flow cytometer. Obtained Flow Cytometry Standard files were analyzed using BD FACSDiva Software (FACSDiva Version 6.1.3, Becton Dickinson Biosciences, San Jose, CA, USA). The experiment was performed three times in at least two technical replicates.

[1] = test system: HUVEC (human umbilical vein endothelial cells); conditions: 48 h, MTT, mean ± SD; cited from earlier work

Structure (SMILES) | IC50 (CFPAC cells) [µM] | activation of caspase 3/7 (caspase 3 and 7) | apoptotic cells, early (LR) and late (UR) (K562 cells) | IC50 [1] [µM]
CCC12C(=O)C(CC)(C(c3ccccc3)=C1c1ccccc1)C1C(=O)N(CCN3CCCCC3)C(=O)C12 (stereo not drawn) [Compound 3] | > 1000 | strong activation | about 44% | > 100
CCC12C(=O)C(CC)(C(c3ccccc3)=C1c1ccccc1)C1C(=O)N(CC(O)CNC(C)C)C(=O)C12 (stereo not drawn) [Compound 5] | > 1000 | strong activation | more than 90% | > 100
CN(C)CCN1C(=O)C2C(C1=O)C1(c3ccccc3)CC2(c2ccccc2)C(c2ccccc2)=C1c1ccccc1 (stereo not drawn) [Compound 6] | 40 ± 3.1 | strong activation | more than 90% | > 100
